Measurements as given in US20230286973A1, “PROTEIN SECRETION INHIBITORS” (KEZAR LIFE SCIENCES, priority 2020, published 2023).

Tests used:
[1] = Liver Microsome Stability Assay (monkey); details: monkey liver microsomes, with NADPH, 1.0 uM compound
Experimental: (§1) Stability of a compound was assessed in the presence of liver microsomes from various sources—mouse, rat, monkey and human liver microsomes. 1.0 uM compound, 0.4% DMSO in 0.1 M Potassium Phosphate with 1.0 mg/mL liver microsomes, were incubated at 37° C. with or without 1 mM NADPH. The samples were quenched at 0, and 30 minutes.

[2] = Liver Microsome Stability Assay (rat); details: rat liver microsomes, with NADPH, 1.0 uM compound
Experimental: as §1

[3] = system: TNFα-FL/Gaussia Luciferase; experiment: Dox Induced TNFα-FL-Gluc Assay; type: cell-based; details: for IC50: 24 hr Dox induction, 293FRT/TO cells, read-out: 24 hr Dox Inducible TNFaFLGluc 293FRT/TO: Mean IC50; for 24 hr Dox Inducible TNFaFLGluc 293FRT/TO: TNF/PD1: ratio of TNFaFLGluc IC50 to PD1ssGluc IC50
Outline: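 Hygromycin/blasticidin-selected Flp-In 293 T-REx cells, TNFα-FL/Gaussia luciferase fusion under T-REx control; overnight plating, then compound in DMSO/media with doxycycline at 37 °C, 5% CO2; stereo-undefined structures tested as mixtures.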

[4] = system: multiple myeloma cell line NCI-H929; experiment: H929 Cell Viability Assay; type: cell-based, human; details: Homo sapiens, NCI-H929, 48 h, NCI-H929 cells, Celltiter-Glo
Outline: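 A 48-hour compound treatment of cells in 10% FBS RPMI medium was followed by luciferase-based viability quantification.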

[5] = system: PD1-ss+10aa/Gaussia Luciferase; experiment: Dox-Induced PD1-ss-Gluc Assay; type: cell-based; details: 24 hr Dox induction; 293FRT/TO cells; read-out: 24 hr Dox Inducible PD1ssGluc 293FRT/TO: Mean IC50
Outline: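 Gaussia luciferase fused downstream of the PD1 signal peptide plus 10 residues was expressed on doxycycline induction in stably transfected Flp-In 293 T-REx cells. Compounds were added with doxycycline and incubated at 37 °C, 5% CO2.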

[6] = Liver Microsome Stability Assay (human); details: human liver microsomes, with NADPH, 1.0 uM compound
Experimental: as §1

[7] = Liver Microsome Stability Assay (mouse); details: mouse liver microsomes, with NADPH, 1.0 uM compound
Experimental: as §1

[8] = system: IL-2-FL/Gaussia Luciferase; experiment: Dox Induced IL2-FL-Gluc Assay; type: cell-based; details: for IC50: 24 hr Dox induction, 293FRT/TO cells, read-out: 24 hr Dox Inducible IL2FLGluc 293FRT/TO: Mean IC50; for 24 hr Dox Inducible IL2FLGluc 293FRT/TO: IL2/PD1: ratio of IL2FLGluc IC50 to PD1ssGluc IC50
Outline: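 A hygromycin- and blasticidin-resistant 293 T-REx clone carrying inducible IL-2–Gaussia luciferase (full-length IL-2, residues 1-153) serves as the cell system. After overnight plating, the cells get test compounds together with doxycycline in DMSO/media and are incubated at 37° C, 5% CO2.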

[9] = system: HER3-ss+4aa/Gaussia Luciferase; experiment: Dox-Induced Her3-ss-Gluc Assay; type: cell-based; details: 24 hr Dox induction; 293FRT/TO cells; read-out: 24 hr Dox Inducible Her3(ss + 4)Gluc 293FRT/TO: Mean IC50
Outline: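 Doxycycline-inducible HER3 signal sequence+4aa/Gaussia luciferase construct, stably integrated in Flp-In 293 T-REx cells; compound dilutions applied with doxycycline at 37° C., 5% CO2.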

[10] = system: multiple myeloma cell line U266B1; experiment: U266 Cell Viability Assay; type: cell-based, human; details: Homo sapiens, U-266, 48 h, U266B1 cells, Celltiter-Glo
Outline: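 After growth in serum-supplemented RPMI 1640, cells received serially diluted compound in DMSO/media and were kept 48 hours before a CellTiter-Glo luminescence readout.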

Structure (SMILES) | Liver Microsome Stability (Multiple Species): Monkey - % Remaining after 30 min w/NADPH [1] [%] | Liver Microsome Stability (Multiple Species): Rat - % Remaining after 30 min w/NADPH [2] [%] | IC50 [3] [µM] | EC50 [4] [µM] | IC50 [5] [µM] | Liver Microsome Stability (Multiple Species): Human - % Remaining after 30 min w/NADPH [6] [%] | Liver Microsome Stability (Multiple Species): Mouse - % Remaining after 30 min w/NADPH [7] [%] | IC50 [8] [µM] | IC50 [9] [µM] | EC50 [10] [µM] | 24 hr Dox Inducible TNFaFLGluc 293FRT/TO: TNF/PD1 [3] | 24 hr Dox Inducible IL2FLGluc 293FRT/TO: IL2/PD1 [8]
CC(=O)Nc1ccc(N2CCC[C@@H]2c2csc(NC(=O)c3cccn3Cc3cc(F)nc(F)c3)n2)cc1 [Compound A122, (R)-N-(4-(1-(4-acetamidophenyl)pyrrolidin-2-yl)thiazol-2-yl)-1-((2,6-difluoropyridin-4-yl)methyl)-1H-pyrrole-2-carboxamide] | 27.3 | 18.8 | 0.191 | 0.354 | 0.00788 | 35.8 | 17.1 | 0.016 | 0.0174 | 8.02 | 24.2 | 2
NC(=O)Nc1ccc(N2CCC[C@@H]2c2csc(NC(=O)c3cccn3Cc3ccnc(F)c3)n2)cc1 [Compound A123, (R)-1-((2-fluoropyridin-4-yl)methyl)-N-(4-(1-(4-ureidophenyl)pyrrolidin-2-yl)thiazol-2-yl)-1H-pyrrole-2-carboxamide] | 31.6 | 44.7 | 0.143 | 0.289 | 0.00821 | 49.3 | 23.3 | 0.0243 | 0.0181 | > 25 | 17.4 | 3
CN(C)C(=O)Nc1ccc(N2CCC[C@@H]2c2csc(NC(=O)c3cccn3Cc3ccnc(F)c3)n2)cc1 [Compound A124, (R)-N-(4-(1-(4-(3,3-dimethylureido)phenyl)pyrrolidin-2-yl)thiazol-2-yl)-1-((2-fluoropyridin-4-yl)methyl)-1H-pyrrole-2-carboxamide] | 27.8 | 37.6 | 0.0758 | 0.166 | 0.00487 | 53.1 | 31.2 | 0.0104 | 0.00915 | > 25 | 15.6 | 2.1
CNC(=O)N1CC(Oc2ccc(N3CCC[C@@H]3c3csc(NC(=O)c4cccn4Cc4ccnc(F)c4)n3)cc2)C1 [Compound A125, (R)-1-((2-fluoropyridin-4-yl)methyl)-N-(4-(1-(4-((1-(methylcarbamoyl)azetidin-3-yl)oxy)phenyl)pyrrolidin-2-yl)thiazol-2-yl)-1H-pyrrole-2-carboxamide] | 10.1 | 24.9 | 0.322 | 1.21 | 0.0225 | 26.2 | 45.1 | 0.065 | 0.0286 | > 25 | 14.3 | 2.9
CC(=O)N1CCC(Oc2ccc(N3CCC[C@@H]3c3csc(NC(=O)c4cccn4Cc4ccnc(F)c4)n3)cc2C#N)CC1 [Compound A126, (R)-N-(4-(1-(4-((1-acetylpiperidin-4-yl)oxy)-3-cyanophenyl)pyrrolidin-2-yl)thiazol-2-yl)-1-((2-fluoropyridin-4-yl)methyl)-1H-pyrrole-2-carboxamide] | 0.92 | 0.78 | 0.414 | 1.13 | 0.0595 | 1.21 | 17.7 | 0.0725 | 0.00503 | > 25 | 6.97 | 1.2

Further lines, with some results ahead:

Liver Microsome Stability (Multiple Species): Monkey - % Remaining after 30 min w/NADPH [1] [%] | Liver Microsome Stability (Multiple Species): Rat - % Remaining after 30 min w/NADPH [2] [%] | IC50 [3] [µM] | EC50 [4] [µM] | IC50 [5] [µM] | Liver Microsome Stability (Multiple Species): Human - % Remaining after 30 min w/NADPH [6] [%] | Liver Microsome Stability (Multiple Species): Mouse - % Remaining after 30 min w/NADPH [7] [%] | IC50 [8] [µM] | IC50 [9] [µM] | EC50 [10] [µM] | Structure (SMILES) | 24 hr Dox Inducible TNFaFLGluc 293FRT/TO: TNF/PD1 [3] | 24 hr Dox Inducible IL2FLGluc 293FRT/TO: IL2/PD1 [8]
24.4 | 0.26 | 0.107 | 0.278 | 0.00565 | 30.6 | 3.95 | 0.0101 | 0.0108 | > 25 | COCCOc1ccc(N2CCC[C@@H]2c2csc(NC(=O)c3cccn3Cc3ccnc(F)c3)n2)cc1 [Compound A127, (R)-1-((2-fluoropyridin-4-yl)methyl)-N-(4-(1-(4-(2-methoxyethoxy)phenyl)pyrrolidin-2-yl)thiazol-2-yl)-1H-pyrrole-2-carboxamide] | 19 | 1.8
4.62 | 31.3 | 0.495 | 0.847 | 0.0379 | 28 | 25.5 | 0.0596 | 0.0681 | > 25 | CS(=O)(=O)N1CCC(Oc2ccc(N3CCC[C@@H]3c3csc(NC(=O)c4cccn4Cc4ccnc(F)c4)n3)cc2)CC1 [Compound A128, (R)-1-((2-fluoropyridin-4-yl)methyl)-N-(4-(1-(4-((1-(methylsulfonyl)piperidin-4-yl)oxy)phenyl)pyrrolidin-2-yl)thiazol-2-yl)-1H-pyrrole-2-carboxamide] | 13.1 | 1.6
8.34 | 0.45 | 0.303 | 0.398 | 0.00958 | 15.7 | 6.21 | 0.0212 | 0.0155 | > 25 | COc1cc(N2CCC[C@@H]2c2csc(NC(=O)c3cccn3Cc3ccnc(F)c3)n2)ccc1OC1CCN(C(C)=O)CC1 [Compound A129, (R)-N-(4-(1-(4-((1-acetylpiperidin-4-yl)oxy)-3-methoxyphenyl)pyrrolidin-2-yl)thiazol-2-yl)-1-((2-fluoropyridin-4-yl)methyl)-1H-pyrrole-2-carboxamide] | 31.6 | 2.2
25.4 | 52.7 | 0.683 | 0.731 | 0.0158 | 32.5 | 53 | 0.0658 | 0.0278 | > 25 | NC(=O)N1CC(Oc2ccc(N3CCC[C@@H]3c3csc(NC(=O)c4cccn4Cc4ccnc(F)c4)n3)cc2)C1 [Compound A130, (R)-N-(4-(1-(4-((1-carbamoylazetidin-3-yl)oxy)phenyl)pyrrolidin-2-yl)thiazol-2-yl)-1-((2-fluoropyridin-4-yl)methyl)-1H-pyrrole-2-carboxamide] | 43.1 | 4.2
